Test results taken from article PMC6452685, “Lysyl-tRNA synthetase as a drug target in malaria and cryptosporidiosis” (Proceedings of the National Academy of Sciences of the …, 2019).
In brackets after ≈: the same amount, converted by molar mass.

Key:
[1] = system: Nluc-expressing transgenic C. parvum; experiment: Anti-Cryptosporidium in vivo efficacy in IFN-γ-knockout mice (Nluc C. parvum); parameters: species or system mouse; conditions: 20 mg/kg orally once a day for 7 d
Description: INF-γ–knockout mice ([28], [29]) were infected orally with Nluc-expressing transgenic C. parvum oocysts. Treatment started upon patency 4 d postinfection (p.i.), and mice were treated orally once a day for 7 d. Infection was monitored daily by luciferase measurements in pooled feces of the entire cage. Mice were followed for 3 wk after completion of drug treatment. […] NOD SCID gamma mice were infected with C. parvum oocysts ([26]). Treatment started 7 d p.i., and mice were treated orally once a day for 7 d. The study was run with four mice per cage; infection was monitored by quantitative PCR on day eight for individual mice, and data are shown as oocysts per milligram of feces. […]
Data analysis was performed using GraphPad Prism 7.0 (GraphPad S oftware), Excel 2016 (Microsoft ) and R free so ftware (https://www.r-project.org) for data pl otti ng and s tati s ti cal model li ng. […]
5. 4 M eas urement of a nt i-Cryptosporidium in vivo efficacy in IFN-γ-knockout mice (Georgia) The Nl uc-C. parvum IFN-γ-knockout (IFN-γ KO) m ouse in vivo experiments were run in acco rdance with the publ i s hed method (22). Briefly, female C57BL/ 6 IFN-γ KO mi ce, aged 6–8 weeks were infected with 10,000 C. parvum UG A1 Nl uc (Vi naya k et al 2015, Natu re) tra ns g eni c oocys ts . […]

[2] = Intrinsic clearance in human liver microsomes; format: in vitro ADME
FaSSIF solubility = format: physicochemical; conditions: 37 °C, thermodynamic from solid; FaSSIF pH 6.5
Description: 4.1 Aque ous s olubilit y
Compounds were subject to serial dilution from 10 mM to 0.47 mM in DMSO. An al i quot was then mi xed wi th Mi l li Q water to obtai n a n aq ueous di l uti on pl ate wi th a fi na l concentrati on rang e of 250 - 13 µM, with a final DMSO concentration of 2. 5 % (v /v ). Triplicate al i quots were transferred to a fl at bottomed pol ystyrene pl ate whi ch was i mmedi ately read o n the NEPHELOstar (BMG Lab Techn ol ogi es). […]
Drug dissolution in biorelevant media which simulates the liquid environment within the upper […]
into the blood stream and is more a more accurate determination of oral d os e s ol ubi li t y t han si mple aqueous sol ubi l i ty performed at neutral pH and wi thout any associ ated bil e aci ds and fats. This method i s based on that of Fagerberg et al. (16) where the FaSSIF has pH 6.5 a nd c ontains 3 mM sodium taurocholate and 0.7 5 mM lectithin. FaSSIF blank only has pH 6.5 and is devoid of salts and […]
[…] The sampl e i s then centri fuged at 10,00 0 rpm for 3 mi n befo re th e supernatant i s subject to HPLC analysis at 254 nm UV detecti on wavel ength. Typi call y, 10 µ l supernatant injections are suffi ci ent to achi eve peak areas whi ch fal l wi thi n the 6 p oi nt standar d curv e of anal y te concentrati ons i njected onto the col umn, al thoug h thi s may be i ncreas ed up to 40 µl for more insoluble compounds where necessary. […]

44 receptor/enzyme panel = experiment: Preliminary selectivity study in a 44 receptor/enzyme panel; conditions: at a concentration of 10 μM
[3] = system: P. berghei liver schizonts; experiment: P. berghei liver schizonts (luciferase); format: cell-based; conditions: Plasmodium berghei
Description: Thi s i s bas ed on met hods prev i ous l y report ed (12 ). In bri ef, HepG 2-A1 6-CD81EGFP cel l s were cul tured at 3 7 °C i n 5% C O2 in DMEM me dia. For both P. berghei-Luc and HepG2 cytotoxi ci ty assays, 3x 10**3 of the HepG2-A16-CD81EGFP20 cells in 5 µl of assay medi um (DMEM wi thout Phenol Red (Li fe Techn ol ogi es, CA), 5% FBS, and 5x Pen Stre p Gl utami ne (Li fe Techn ol ogi es, CA)) at concentrati o n 6x 10**5 cel l s /ml were s eeded i n white s oli d bottom 153 6-well pl at es (cus t om G NF mol d ref# 7891 73-F, Grei ner Bi o-One), 2 0-26 h prior to sporozoites infection. […]
pri or t o i nfect i on 5 0 nl of comp ounds i n 1:3 s eri al di l ut i ons in DMSO (0. 5% fi nal DMSO concentrati on per w el l ) w ere t rans ferred w i t h an Acous ti c Trans fer Sy s t em (ATS) (Bi os ero) t o the cells. Atovaquone (5µ M) and pu romy ci n (1 0 µM) at a single concentration were used as pos i t i v e cont rol s for the Pbluc and He pG 2tox , res pecti v el y . 0. 5% DMSO was us ed as neg ati v e control for both as s ay s . […]
[…] Immediately after addition of the luminescence reagent, the luminescence was measured by the Env i s i on M ul t il abel Reader (Perk i nEl mer). […]
Thi s is a modification of the previously reported method (13). […]

## O=C(NCC1(O)CCC(F)(F)CC1)c1cc(=O)c2cc(F)ccc2o1 [Compound 5]
[1]; INF-γ–knockout mice
  parasite shedding: below detection level
[1]; INF-γ–knockout mouse, day 8
  reduction in parasite levels compared with control: 10,000 fold
[2]
  Microsomal stability CLint: < 0.5 mL⋅min^−1⋅g^−1
FaSSIF solubility
  solubility at 5 h: 255 µM (≈ 90.6 µg/mL)
44 receptor/enzyme panel
  activity in 44 receptor/enzyme panel: no activity
[3]
  EC50: 900 nM
